Data reported in patent US5599937A, “Heteroaromatic quinuclidinenes, their use and preparation” (Pharmacia AB, priority 1992, dated 1997).

System: ileum (longitudinal muscle)
Assay: Functional in vitro study: muscarinic (agonistic) activity on ileal preparations
Details: Cavia porcellus, guinea pig ileum, read-out: agonistic effect on ileum in relation to maximal carbachol response (Emax)
Description: (§1) Male guinea pigs, weighing about 300 g, were killed by a blow on the neck and exsanguinated. Smooth muscle strips of the urinary bladder and ileum (longitudinal muscle only) were dissected in a Krebs-Henseleit solution (pH 7.4). The strip preparations were then vertically mounted between two hooks in thermostatically controlled (37° C.) organ baths (5 mL). One of the hooks was adjustable and connected to a force transducer (FT 03, Grass Instruments). The Krebs-Henseleit solution was continuously bubbled with carbogen gas (93.5% O2 /6.5% CO2) to maintain pH at 7.4. Isometric tension was recorded by a Grass Polygraph (model 79D). A resting tension of approximately 5 mN was initially applied on each muscle strip and the preparations were allowed to stabilize for at least 45 min. The resting tension was repeatedly adjusted and the preparations were washed several times during the stabilization period.
The urinary bladder strips were used for evaluation of antimuscarinic activity and the ileal preparations for studies of muscarinic activity. Carbachol (carbamylcholine chloride) was used as the standard agonist. Concentration-response curves to agonists were generated either by the cumulative dose-response technique (bladder strip) or by the addition of single agonist concentrations (ileal preparations). […] EC50 values were graphically determined. […]

Q: How did the Emax at 500 µM turn out when `Cc1ccc(C2=CN3CCC2CC3)s1` [Example 19, 3-(5-methyl-2-thienyl)quinuclidin-2-ene] was run?
A: 10%

Q: With `COC(=O)c1ccc(C2=CN3CCC2CC3)o1` [Example 31, 3-(2-Methoxycarbonyl-5-furyl)-quinuclidin-2-ene] as the molecule, how does the Emax at 500 µM read?
A: 21%

Molecular target: T1, smooth muscle strips of the urinary bladder (Cavia porcellus, UniProt H0W1Z3)
T1 construct: Smooth muscle strips of the urinary bladder and ileum (longitudinal muscle only) were dissected; from tissue; host or cells: guinea pig urinary bladder smooth muscle strips
Assay: Functional in vitro study: antimuscarinic activity (antagonism of carbachol contraction) on urinary bladder strips
Set-up: species or system guinea pig
Details: not given
Description: as §1
The urinary bladder strips were used for evaluation of antimuscarinic activity and the ileal preparations for studies of muscarinic activity. Carbachol (carbamylcholine chloride) was used as the standard agonist. Concentration-response curves to agonists were generated either by the cumulative dose-response technique (bladder strip) or by the addition of single agonist concentrations (ileal preparations). In the latter case, the preparations were washed and allowed to rest between each concentration of agonist. EC50 values were graphically determined.
In studies of antagonism, a control concentration-response curve to carbachol was generated by cumulative addition of carbachol to the bladder strip (i.e., stepwise increase of the agonist concentration until the maximal contractile response was reached), followed by washing out and a resting period of at least 15 min. before a fix concentration of the test compound (antagonist) was added to the organ-bath. After 60 min. of incubation, a second cumulative concentration-response curve to carbachol was generated. Responses were expressed as percent of the maximal response to carbachol. EC50 -values for carbachol in the absence (control) and presence of antagonist were graphically derived and dose ratios (r) were calculated. Dissociation constants, Kb, for the antagonists were then calculated using the following equation (1), where [A] is the concentration of test compound.

T1 sequence (H0W1Z3 1-590): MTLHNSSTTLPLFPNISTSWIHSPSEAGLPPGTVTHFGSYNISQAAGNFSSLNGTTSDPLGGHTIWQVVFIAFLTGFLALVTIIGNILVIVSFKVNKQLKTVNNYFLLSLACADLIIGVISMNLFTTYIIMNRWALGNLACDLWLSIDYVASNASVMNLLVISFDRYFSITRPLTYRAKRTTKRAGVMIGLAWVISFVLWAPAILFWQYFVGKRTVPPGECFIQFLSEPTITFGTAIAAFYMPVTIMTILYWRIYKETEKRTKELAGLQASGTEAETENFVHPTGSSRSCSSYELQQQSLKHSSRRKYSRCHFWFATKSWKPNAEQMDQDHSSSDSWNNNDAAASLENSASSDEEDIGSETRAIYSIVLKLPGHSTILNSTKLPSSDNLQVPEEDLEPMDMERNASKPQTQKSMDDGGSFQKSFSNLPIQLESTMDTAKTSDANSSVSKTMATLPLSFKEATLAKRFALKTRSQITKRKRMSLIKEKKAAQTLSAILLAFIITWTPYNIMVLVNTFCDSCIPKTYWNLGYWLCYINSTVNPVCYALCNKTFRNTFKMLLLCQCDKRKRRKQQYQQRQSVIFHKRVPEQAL

Q: For `Cc1ccc(C2(O)CN3CCC2CC3)o1` (stereo not drawn) [Example 4, 3-(5-Methyl-2-furyl)quinuclidin-3-ol], which Kb is on record?
A: 1200 nM

Q: Which Kb does the source give for `Cc1ccc(C2(O)CN3CCC2CC3)s1` (stereo not drawn) [Example 6, 3-(5-Methylthienyl)quinuclidin-3-ol] here?
A: 23000 nM

Q: Which Kb does the source give for `CCc1ccc(C2(O)CN3CCC2CC3)o1` (stereo not drawn) [Example 8, 3-(5-Ethyl-2-furyl)quinuclidin-3-ol] here?
A: 6700 nM

Same assay, conditions: read-out: Kb (dissociation constant for the antagonist)

Q: Which Kb does the source give for `Cc1ccc(C2=CN3CCC2CC3)o1` [Example 17, 3-(5-Methyl-2-furyl)quinuclidin-2-ene] here?
A: 61 nM

Q: Which Kb does the source give for `Cc1ccc(C2=CN3CCC2CC3)s1` [Example 19, 3-(5-methyl-2-thienyl)quinuclidin-2-ene] here?
A: 320 nM

Q: How did the Kb turn out when `CCc1ccc(C2=CN3CCC2CC3)o1` [Example 21, 3-(5-Ethyl-2-furyl)quinuclidin-2-ene] was run?
A: 31 nM

Q: How did the Kb turn out when `C1=C(c2occc2-c2ccccc2)C2CCN1CC2` [Example 27, 3-(3-Phenylfuran-2-yl)quinuclidin-2-ene] was run?
A: 2.7 nM

Q: `C1=C(c2ccc(-c3ccccc3)o2)C2CCN1CC2` [Example 29, 3-(5-Phenylfuran-2-yl)quinuclidin-2-ene] was tested. Which Kb did it give?
A: 1020 nM

Q: For `COC(=O)c1ccc(C2=CN3CCC2CC3)o1` [Example 31, 3-(2-Methoxycarbonyl-5-furyl)-quinuclidin-2-ene], which Kb is on record?
A: 2600 nM

Same assay, conditions: read-out: Kb (dissociation constant for the antagonist); guinea pig urinary bladder strip; antagonism of carbachol; 60 min incubation; Kb=[A]/r-1

Q: For `OC1(c2occc2Br)CN2CCC1CC2` (stereo not drawn) [Example 7, 3-(3-Bromo-2-furyl)quinuclidin-3-ol], which Kb is on record?
A: 11000 nM
